Patent publication US7144982B2, “Polypeptides with therapeutic activity and methods of use” (University of Minnesota, priority 2000, dated 2006)
Read-outs that look alike come from different tables or passages of the source. Ends that are not written are not given here.

Legend:
Human red blood cells = type: cell-based; details: for hemolysis: red cells of human, 1 h
Procedure: Human red blood cells were washed three times using phosphate buffered saline (PBS: 35 mM phosphate buffer, 0.15 M NaCl, pH 7.0) prior to performing the assay. One hundred μL of human red blood cells suspended in 0.4% (v/v) PBS was placed in eppendorf tubes, and 100 μL of serially diluted peptides in PBS was added (peptide concentration ranged from 1 μM to 100 μM). Tubes were incubated for 1 hr at 37° C. and centrifuged at 1000 g for 5 min. One hundred μL aliquots of the supernatant was then transferred to eppendorf tubes, and hemolysis was measured by absorbance at 414 nm. Zero percentage hemolysis and 100% hemolysis were determined in PBS and in 1% Triton-X 100, respectively. The hemolysis percentage was calculated using the following formula: % hemolysis=[(A414 in the peptide solution−A414 in PBS)/(A414 in 1% Triton-X 100−A414 in PBS)]×100.

E. coli H5 = assay: Bactericidal assay, smooth strain E. coli H5; type: cell-based; details: Table 1, SD about ±30%
Description: (§1) Pseudomonas aeruginosa type 1 is a clinical, smooth strain isolate serotyped by using the scheme of Homma, Japan. J. Exp. Med. 46, 329–336 (1976) and maintained in the lab by monthly transfer on blood agar plates. E. coli J96, IA2, and H5 are smooth strain, uropathogenic clinical isolates kindly maintained and provided by J. R. Johnson and described in Johnson et al., J. Infect. Disease 173, 920–926 (1996) for J96 and IA2 and in Johnson et al., J. Infect. Disease 173, 746–749 (1996) for H5. J5 is an E. coli rough strain initially referenced by G. R. Siber and discussed in Warren et al., Infect. Immunity 55, 1668–1673 (1987) and is analogous to the smooth strain E. coli 0111:B4 used in the BioWhittaker LAL endotoxin detection and quantitation kit described below. Gram-positive MN8 and MNHO are two patient isolates of Staphylococcus aureus, which were kindly provided by P. M. Schlievert and described in Bohach et al., Rev. Infect. […]
(§2) Pyrogen-free solutions were used throughout the assay. […] Plates were incubated overnight at 37° C. and counted the next morning. The dilution containing 10–100 bacteria was counted and the number multiplied by 50 to adjust all counts to the number bacteria killed per milliliter. […] Bactericidal activity was determined by dose response where LD50 values were determined by best fits of a sigmoidal curve to the dose response data.

E. coli IA2 = assay: Bactericidal assay, smooth strain E. coli IA2; type: cell-based; details: Table 1, SD about ±30%
Description: as §1, §2

E. coli 055:B5 LPS = assay: Limulus amoebocyte lysate assay for LPS neutralization; type: biochemical; details: for drop in LPS neutralizing activity relative to SC-4: SC-3: relative to either SC-4 or SC-5
Description: The ability of synthetic peptides to neutralize endotoxin was detected using the chromogenic QCL-1000 kit from BioWhittaker, Inc. (Walkersville, Md.) as described in their protocol. This method is quantitative for Gram-negative bacterial endotoxin (lipopolysaccharide, LPS). In the Limulus amebocyte lysate (LAL) assay, peptides that are active inhibit the LPS-mediated activation of a proenzyme (Young et al., J. Clin. Invest. 51, 1790–1797 (1972)) whose active form would release p-nitroaniline (pNA) from a colorless synthetic substrate (Ac-Ile-Glu-Ala-Arg-pNA), producing a yellow color (pNA) whose absorption is monitored spectrophotometrically at 405–410 nm. The initial rate of enzyme activation is proportional to the concentration of endotoxin present. The concentration of peptide required to bind to LPS and therefore to inhibit the Limulus amoebocyte lysate driven by 0.04 unit (or 0.01 ng) of E. coli 055:B5 LPS (from SIGMA) was determined by dose response.

[1] = tested on: Pseudomonas aeruginosa type 1; assay: Bactericidal assay, P. aeruginosa (P.a.); type: cell-based; details: SD about ±30%; for LD50 bactericidal activity, Gram neg. smooth P.a.: Table 1, P. aeruginosa; for LD50 bactericidal activity, Gram-neg. smooth P.a.: Table 4, SC-4 variants
Description: (§3) Pseudomonas aeruginosa type 1 is a clinical, smooth strain isolate serotyped by using the scheme of Homma, Japan. J. Exp. Med. 46, 329–336 (1976) and maintained in the lab by monthly transfer on blood agar plates. E. coli J96, IA2, and H5 are smooth strain, uropathogenic clinical isolates kindly maintained and provided by J. R. Johnson and described in Johnson et al., J. Infect. Disease 173, 920–926 (1996) for J96 and IA2 and in Johnson et al., J. Infect. Disease 173, 746–749 (1996) for H5. J5 is an E. coli rough strain initially referenced by G. R. Siber and discussed in Warren et al., Infect. Immunity 55, 1668–1673 (1987) and is analogous to the smooth strain E. coli 0111:B4 used in the BioWhittaker LAL endotoxin detection and quantitation kit described below. Gram-positive MN8 and MNHO are two patient isolates of Staphylococcus aureus, which were kindly provided by P. M. Schlievert and described in Bohach et al., Rev. Infect. Diseases 11, 75–82 (1989) for MNHO and in Schlievert et al., J. Infect. Diseases 147, 236–242 (1983) for MN8. All cultures are maintained on nutrient agar plates.
(§4) Pyrogen-free solutions were used throughout the assay. Log phase bacteria were obtained by transferring an overnight culture or scraping crystals off −85° C. glycerol stocks of overnight cultures. Bacteria were washed and resuspended in 0.9% sodium chloride with adjustment to an optical density at 650 nm which yields 3×10^8 CFU/ml. Bacteria were then diluted 1:10 in 0.08 M citrate phosphate buffer, pH 7.0 (prepared by mixing 0.08 M citric acid with 0.08 M dibasic sodium phosphate). Bacteria (0.15 ml) were incubated with peptide in a final volume of 1.0 ml of buffer. The assay was done in 17×100 polypropylene tubes in a reciprocal water bath shaker at 37° C. for 30 minutes. Following this 30 minute (min) incubation, 10-fold dilutions were made in 0.9% sodium chloride. Dilutions were done to 10^−4 and 20 μl of each dilution was streaked across an agar plate. Gram-positive organisms were plated on nutrient agar plates containing 2% agar and Gram-negative organisms were plated on MacConkey agar (2%). Plates were incubated overnight at 37° C. and counted the next morning. The dilution containing 10–100 bacteria was counted and the number multiplied by 50 to adjust all counts to the number bacteria killed per milliliter. Peptide concentrations were converted to logarithm base ten and graphed. Bactericidal activity was determined by dose response where LD50 values were determined by best fits of a sigmoidal curve to the dose response data.

E. coli J5 = assay: Bactericidal assay, rough strain E. coli J5; type: cell-based; details: for LD50 bactericidal activity, Gram neg. rough J5: Table 1, E. coli J5; for LD50 bactericidal activity, Gram neg. rough J5 / LD50 bactericidal activity, Gram-neg. rough J5: SD about ±30%; for LD50 bactericidal activity, Gram-neg. rough J5: Table 4, SC-4 variants
Description: as §3, §4

[2] = tested on: Staphylococcus aureus MN8; assay: Bactericidal assay, Gram-positive S. aureus MN8; type: cell-based; details: Table 1, SD about ±30%
Description: as §1, §2

[3] = tested on: Staphylococcus aureus MNHO; assay: Bactericidal assay, Gram-positive S. aureus MNHO; type: cell-based; details: SD about ±30%
Description: as §3, §4

E. coli J96 = type: cell-based; details: for LD50 bactericidal activity, Gram neg. smooth J96: Table 1, E. coli J96, SD about ±30%
Description: as §3
as §4, with “The assay was done in 17×100 polypropylene tubes in a reciprocal water bath shaker at 37° C. for 30 minutes. Following this 30 minute (min) incubation, 10-fold dilutions were made in 0.9% sodium chloride. Dilutions were done to 10^−4 and 20 μl of each dilution was streaked across an agar plate. Gram-positive organisms were plated on nutrient agar plates containing 2% agar and Gram-negative organisms were plated on MacConkey agar (2%).” left out, “Peptide concentrations were converted to logarithm base ten and graphed.” left out

bacteria = details: cited from earlier work
P. aeruginosa = details: against P. aeruginosa; Lee et al. 1989; cited from earlier work
[4] = Table 1, SD about ±30%, read-out: LPS effect, IC50 for neutralization of LPS
[5] = Table 4, SC-4 variants, SD about ±30%, read-out: LPS neutralization IC50
[6] = read-out: IC50 LPS neutralization

Substance	hemolysis (Human red blood cells; 1e-4 M)	IC50 (E. coli 055:B5 LPS; [5])	LD50 bactericidal activity, Gram-neg. smooth P.a. [1]	LD50 bactericidal activity, Gram-neg. rough J5 (E. coli J5)	LD50 bactericidal activity, Gram-positive MNHO ([3]; Table 4, SC-4 variants)	other results
ANIKLSVQMKLF-NH2 [SC-1, ANIKLSVQMKLF]	around 70%	–	–	–	–	hemolysis (Human red blood cells; 1e-6 M): 15-30%
ANIKLSVQMKLFKRHLKWKIIVKLNDGRELSLD-NH2 [βpep-25, reference compound]	about 5%	–	–	–	–	–
BG-22: peptide 28 mer having the amino acid sequence from the β-sheet domain of bactericidal/permeability increasing (B/PI) protein (residues 82–108) (NANIKISGKWKAQKRFLKMSGNFDLSI; UniProt P17213 113-139, looked up, fragment) [reference compound]	–	–	–	–	–	LD50 bactericidal activity, Gram neg. smooth H5 (E. coli H5): 0.71 10^−6 M; LD50 bactericidal activity, Gram neg. smooth IA2 (E. coli IA2): 0.32 10^−6 M; IC50 (E. coli 055:B5 LPS; [4]): 5 µM; LD50 bactericidal activity, Gram neg. smooth P.a. [1]: 0.05 10^−6 M; LD50 bactericidal activity, Gram neg. rough J5 (E. coli J5): 0.09 10^−6 M; LD50 bactericidal activity, Gram-positive MN8 [2]: 0.5 10^−6 M; LD50 bactericidal activity, Gram-positive MNHO ([3]; Table 1, S. aureus MNHO): 0.63 10^−6 M; LD50 bactericidal activity, Gram neg. smooth J96 (E. coli J96): 0.52 10^−6 M
K L F K K H L K W K I I-NH2 [SC-408]	–	1000 µM	0.07 10^−6 M	0.003 10^−6 M	2 10^−6 M	LPS neutralization in words (E. coli 055:B5 LPS): does not affect LPS binding; drop in LPS neutralizing activity relative to SC-4 (E. coli 055:B5 LPS): about 500 fold
K L F K R H L K W X I I-NH2 [SC-407]	–	3 µM	0.05 10^−6 M	0.007 10^−6 M	1 10^−6 M	LPS neutralization in words (E. coli 055:B5 LPS): essentially no affect
K L F K R H L X W K I I-NH2 [SC-406]	–	3 µM	0.05 10^−6 M	0.005 10^−6 M	2 10^−6 M	LPS neutralization in words (E. coli 055:B5 LPS): essentially no affect
K L F K X H L K W K I I-NH2 [SC-409]	–	3 µM	0.22 10^−6 M	0.001 10^−6 M	0.3 10^−6 M	LPS neutralization in words (E. coli 055:B5 LPS): nearly full activity
K L F X R H L K W K I I-NH2 [SC-405]	–	7 µM	0.17 10^−6 M	0.006 10^−6 M	0.4 10^−6 M	drop in LPS neutralizing activity relative to SC-4 (E. coli 055:B5 LPS): about 3 fold
KIIVKLNDGREL-NH2 [SC-7, KIIVKLNDGREL]	~15%	–	–	–	–	–
KLFKRHLKWKII-NH2 [SC-4, KLFKRHLKWKII]	~10%	–	–	–	–	LD50 (E. coli J5; against J5 (Gram-negative bacteria)): 3 nM; concentration below which not hemolytic (Human red blood cells): ≥ 10^−4 M; LD50 (E. coli J96; J96): 250 nM
KLKLLLLLKLK-NH2 [antibacterial peptide of the literature forming channels in bacterial membranes]	–	–	–	–	–	effective antibacterial concentration (bacteria; Alvarez-Bravo et al. 1995): 100 µM
KLSVQMKLFKRH-NH2 [SC-2, KLSVQMKLFKRH]	~15%	–	–	–	–	–
KRHLKWKIIVKL-NH2 [SC-5, KRHLKWKIIVKL]	around 70%	–	–	–	–	hemolysis (Human red blood cells; 1e-6 M): 15-30%
LKWKIIVKLNDG-NH2 [SC-6, LKWKIIVKLNDG]	~15%	–	–	–	–	–
MKLFKRHLKWKI [SC-402, M K L F K R H L K W K I-NH2]	–	25 µM	0.07 10^−6 M	0.005 10^−6 M	6 10^−6 M	drop in LPS neutralizing activity relative to SC-4 (E. coli 055:B5 LPS): 12 fold; IC50 (E. coli 055:B5 LPS; [6]): 25 µM
MKLFKRHLKWKIIV [SC-403, M K L F K R H L K W K I I V-NH2]	–	6 µM	0.05 10^−6 M	0.002 10^−6 M	0.4 10^−6 M	–
QMKLFKRHLKWK [SC-401, Q M K L F K R H L K W K-NH2]	–	–	0.06 10^−6 M	0.004 10^−6 M	XXX (XXX means not active at concentrations below 1 × 10^−5 M.)	drop in LPS neutralizing activity relative to SC-3 (E. coli 055:B5 LPS): 5 fold; drop in LPS neutralizing activity relative to SC-4 (E. coli 055:B5 LPS): 60 fold; IC50 (E. coli 055:B5 LPS; [6]): 126 µM
SIQKLNVSMKLFRKQAKWKIIVKLNDGRELSLD [βpep-19, reference compound]	–	–	–	–	–	LD50 bactericidal activity, Gram neg. smooth H5 (E. coli H5): 0.71 10^−6 M; LD50 bactericidal activity, Gram neg. smooth IA2 (E. coli IA2): 0.06 10^−6 M; IC50 (E. coli 055:B5 LPS; [4]): 2 µM; IC50 (E. coli 055:B5 LPS; [6]): ~2 µM; LD50 bactericidal activity, Gram neg. smooth P.a. [1]: 0.03 10^−6 M; LD50 bactericidal activity, Gram neg. rough J5 (E. coli J5): 0.01 10^−6 M; LD50 bactericidal activity, Gram-positive MN8 [2]: 0.25 10^−6 M; bactericidal concentration range (bacteria; Mayo et al. 1998): ~10^−8 M; LD50 bactericidal activity, Gram-positive MNHO ([3]; Table 1, S. aureus MNHO): 0.16 10^−6 M; LD50 bactericidal activity, Gram neg. smooth J96 (E. coli J96): 0.1 10^−6 M
VKLNDGRELSLD-NH2 [SC-8, VKLNDGRELSLD]	~10%	–	–	–	–	–
VQMKLFKRHLKW-NH2 [SC-3, VQMKLFKRHLKW]	~10%	–	–	–	–	–
X L F K R H L K W K I I-NH2 [SC-404]	–	7 µM	0.22 10^−6 M	0.004 10^−6 M	1 10^−6 M	drop in LPS neutralizing activity relative to SC-4 (E. coli 055:B5 LPS): about 3 fold
cecropin P1	–	–	–	–	–	lethal concentration (P. aeruginosa): 6 µM
